This is an account of results in paper PMC8534050, “Discovery of a Potent and Highly Isoform-Selective Inhibitor of the Neglected Ribosomal Protein S6 Kinase Beta 2 (S6K2)” (Cancers, 2021).

The nature of data set [1]: Glutathione (GSH) stability assay (HPLC). The note with it: glutathione (GSH, 5 mM) in MeCN/PBS buffer.
Experimental: The reaction temperature was chosen to be 40 °C.
Glutathione (GSH) Stability Assay
• 0 min: 40% MeOH, 60% phosphate buffer pH 2.3;
• 20 min: 85% MeOH, 15% phosphate buffer pH 2.3;
• 9 min: 95% MeOH, 5% phosphate buffer pH 2.3;
• 10 min: 95% MeOH, 5% phosphate buffer pH 2.3;
The target in data set [2] is T1, S6K2 (Homo sapiens, UniProt Q9UBS0).
T1 construct: purchased Reaction Biology Corp
Briefly: HotSpot kinase assay (Reaction Biology). The data set is classed as biochemical. The note with it: apparent IC50; five-point; compound 2 triplicate, ± standard deviation. As for the experimental part: The provided IC50 values were measured using the HotSpot^TM Kinase Profiling assay and conducted at Reaction Biology Corp. in their facilities in Malvern, PA, USA.

Data set [3] relates to S6K2. Also noted: method as in PMID 20704563. As to conditions: cited from earlier work.
The test system of data set [4] is S6K1. The note with it: cited from earlier work.
The target of data set [5] is T2, RPS6K5 (Homo sapiens, UniProt O75582).
T2 construct: purchased in-house DSF (thermal shift) panel per Fedorov et al
T2 sequence (O75582 whole entry): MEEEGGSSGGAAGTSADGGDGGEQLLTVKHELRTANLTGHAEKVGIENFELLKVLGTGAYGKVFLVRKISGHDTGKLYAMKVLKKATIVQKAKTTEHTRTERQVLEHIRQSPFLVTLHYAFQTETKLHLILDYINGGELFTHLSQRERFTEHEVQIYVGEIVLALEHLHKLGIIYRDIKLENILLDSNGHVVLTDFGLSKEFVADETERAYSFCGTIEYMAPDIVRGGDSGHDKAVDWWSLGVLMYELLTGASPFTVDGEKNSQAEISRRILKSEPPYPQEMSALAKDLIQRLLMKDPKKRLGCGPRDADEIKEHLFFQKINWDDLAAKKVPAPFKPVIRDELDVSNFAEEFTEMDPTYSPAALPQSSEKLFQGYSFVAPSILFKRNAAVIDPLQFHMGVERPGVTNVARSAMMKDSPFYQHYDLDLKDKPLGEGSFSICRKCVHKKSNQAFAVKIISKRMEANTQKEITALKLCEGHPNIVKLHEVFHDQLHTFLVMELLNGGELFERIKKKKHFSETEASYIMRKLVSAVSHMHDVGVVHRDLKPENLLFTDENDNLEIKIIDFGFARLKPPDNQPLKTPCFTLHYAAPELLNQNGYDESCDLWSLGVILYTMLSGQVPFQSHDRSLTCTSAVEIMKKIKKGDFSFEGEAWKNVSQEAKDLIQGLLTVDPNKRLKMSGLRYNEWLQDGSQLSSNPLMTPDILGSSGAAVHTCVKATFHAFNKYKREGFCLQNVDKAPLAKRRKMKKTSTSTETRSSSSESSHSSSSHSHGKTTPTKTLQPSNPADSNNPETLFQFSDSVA
Briefly: DSF thermal shift assay. The data set is classed as binding. The note with it: read-out: ΔTm. As for the experimental part:
(§1) Differences in the melting temperature (ΔTm) were measured as described by Fedorov et al.. Purified proteins were buffered in 25 mM HEPES (pH 7.5), 500 mM NaCl and were assayed in a 384-well plate with a final protein concentration of 2 μM in 10 μL assay volume. Inhibitors were added to a final concentration of 10 μM using an ECHO 550 acoustic dispenser (Labcyte, San José, CA, USA). As a fluorescence probe, SYPRO-Orange (Molecular Probes, Eugene, OR, USA) was added in a 1:5000 dilution. Filters for excitation and emission were set to 465 nm and 590 nm, respectively. The temperature was increased from 25 °C with 3 °C/min to a final temperature of 95 °C, while scanning, using the QuantStudio5 (Applied Biosystems, Waltham, MA, USA). Data were analyzed through Boltzmann equation in the Protein Thermal Shift software (Applied Biosystems, Waltham, MA, USA). Samples were measured in technical duplicates.

Data set [6] concerns the target T3, CAMK4 (Homo sapiens, UniProt Q16566).
T3 construct: purchased in-house DSF (thermal shift) panel per Fedorov et al
In words: DSF thermal shift assay. As to conditions: read-out: ΔTm. Format: binding. As for the experimental part: as §1

The target of data set [7] is T4, WNK1 (Homo sapiens, UniProt Q9H4A3).
T4 construct: purchased in-house DSF (thermal shift) panel per Fedorov et al
In words: DSF thermal shift assay. Format: binding. As to conditions: read-out: ΔTm. As for the experimental part: as §1

In data set [8] the target is T5, MAPK13 (Homo sapiens, UniProt O15264).
T5 construct: purchased in-house DSF (thermal shift) panel per Fedorov et al
In words: DSF thermal shift assay. Format: binding. As to conditions: read-out: ΔTm. As for the experimental part: as §1

For data set [9], the target named is T6, PAK1 (Homo sapiens, UniProt Q13153).
T6 construct: purchased in-house DSF (thermal shift) panel per Fedorov et al
In words: DSF thermal shift assay. As to conditions: read-out: ΔTm. The data set is classed as binding. As for the experimental part:
as §1

Data set [10] has as its target T7, CDC42BPA (Homo sapiens, UniProt Q5VT25).
T7 construct: purchased in-house DSF (thermal shift) panel per Fedorov et al
In words: DSF thermal shift assay. The data set is classed as binding. The note with it: read-out: ΔTm. Here is the method:
as §1

For data set [11], the target named is T8, SLK (Homo sapiens, UniProt Q9H2G2).
T8 construct: purchased in-house DSF (thermal shift) panel per Fedorov et al
In words: DSF thermal shift assay. Format: binding. The note with it: read-out: ΔTm. As for the experimental part: as §1

In data set [12] the target is T9, STK3 (Homo sapiens, UniProt Q13188).
T9 construct: purchased in-house DSF (thermal shift) panel per Fedorov et al
Briefly: DSF thermal shift assay. Format: binding. The note with it: read-out: ΔTm. As for the experimental part:
as §1

In data set [13] the target is T10, PLK4 (Homo sapiens, UniProt O00444).
T10 construct: purchased in-house DSF (thermal shift) panel per Fedorov et al
T10 sequence (O00444 whole entry): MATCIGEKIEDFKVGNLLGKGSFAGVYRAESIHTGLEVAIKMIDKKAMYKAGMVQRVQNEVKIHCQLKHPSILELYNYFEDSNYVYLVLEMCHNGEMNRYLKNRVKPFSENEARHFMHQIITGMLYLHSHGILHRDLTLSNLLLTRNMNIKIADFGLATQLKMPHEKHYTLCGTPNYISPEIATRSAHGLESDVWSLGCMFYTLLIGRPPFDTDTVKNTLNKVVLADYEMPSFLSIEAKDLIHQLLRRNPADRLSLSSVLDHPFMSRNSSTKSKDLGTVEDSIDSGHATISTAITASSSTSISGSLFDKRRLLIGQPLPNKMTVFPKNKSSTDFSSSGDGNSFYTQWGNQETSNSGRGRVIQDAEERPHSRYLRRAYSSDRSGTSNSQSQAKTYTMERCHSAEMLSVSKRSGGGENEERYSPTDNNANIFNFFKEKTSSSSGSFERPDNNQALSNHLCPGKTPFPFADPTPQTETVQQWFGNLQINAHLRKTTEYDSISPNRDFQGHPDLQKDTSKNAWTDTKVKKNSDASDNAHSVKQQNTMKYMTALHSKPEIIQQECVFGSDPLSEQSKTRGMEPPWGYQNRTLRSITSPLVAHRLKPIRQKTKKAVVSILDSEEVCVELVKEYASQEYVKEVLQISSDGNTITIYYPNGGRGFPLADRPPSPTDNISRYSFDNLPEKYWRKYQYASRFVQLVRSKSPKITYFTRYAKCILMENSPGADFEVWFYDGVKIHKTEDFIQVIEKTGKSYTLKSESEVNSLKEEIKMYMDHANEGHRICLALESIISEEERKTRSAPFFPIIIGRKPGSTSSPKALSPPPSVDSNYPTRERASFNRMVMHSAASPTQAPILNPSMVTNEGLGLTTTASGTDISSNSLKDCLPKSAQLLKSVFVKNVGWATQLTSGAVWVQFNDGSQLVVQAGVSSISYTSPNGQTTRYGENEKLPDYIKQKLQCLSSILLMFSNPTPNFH
Briefly: DSF thermal shift assay. The data set is classed as binding. As to conditions: read-out: ΔTm. Here is the method: as §1

Data set [14] concerns the target T11, OSR1 (Homo sapiens, UniProt O95747).
T11 construct: purchased in-house DSF (thermal shift) panel per Fedorov et al
Briefly: DSF thermal shift assay. The data set is classed as binding. As to conditions: read-out: ΔTm. As for the experimental part: as §1

For data set [15], the target named is T12, STK39 (Homo sapiens, UniProt Q9UEW8).
T12 construct: purchased in-house DSF (thermal shift) panel per Fedorov et al; IC50 follow-up at Reaction Biology Corp
Briefly: DSF thermal shift assay. Format: binding. The note with it: read-out: ΔTm. Here is the method:
as §1

The target in data set [16] is T13, NEK2 (Homo sapiens, UniProt P51955).
T13 construct: purchased in-house DSF (thermal shift) panel per Fedorov et al
Briefly: DSF thermal shift assay. The data set is classed as binding. As to conditions: read-out: ΔTm. Here is the method: as §1

Data set [17] deals with T14, EPHA7 (Homo sapiens, UniProt Q15375).
T14 construct: purchased in-house DSF (thermal shift) panel per Fedorov et al
Briefly: DSF thermal shift assay. The data set is classed as binding. The note with it: read-out: ΔTm. As for the experimental part:
as §1

The target in data set [18] is T15, MERTK (Homo sapiens, UniProt Q12866).
T15 construct: purchased in-house DSF (thermal shift) panel per Fedorov et al
T15 sequence (Q12866 21-999): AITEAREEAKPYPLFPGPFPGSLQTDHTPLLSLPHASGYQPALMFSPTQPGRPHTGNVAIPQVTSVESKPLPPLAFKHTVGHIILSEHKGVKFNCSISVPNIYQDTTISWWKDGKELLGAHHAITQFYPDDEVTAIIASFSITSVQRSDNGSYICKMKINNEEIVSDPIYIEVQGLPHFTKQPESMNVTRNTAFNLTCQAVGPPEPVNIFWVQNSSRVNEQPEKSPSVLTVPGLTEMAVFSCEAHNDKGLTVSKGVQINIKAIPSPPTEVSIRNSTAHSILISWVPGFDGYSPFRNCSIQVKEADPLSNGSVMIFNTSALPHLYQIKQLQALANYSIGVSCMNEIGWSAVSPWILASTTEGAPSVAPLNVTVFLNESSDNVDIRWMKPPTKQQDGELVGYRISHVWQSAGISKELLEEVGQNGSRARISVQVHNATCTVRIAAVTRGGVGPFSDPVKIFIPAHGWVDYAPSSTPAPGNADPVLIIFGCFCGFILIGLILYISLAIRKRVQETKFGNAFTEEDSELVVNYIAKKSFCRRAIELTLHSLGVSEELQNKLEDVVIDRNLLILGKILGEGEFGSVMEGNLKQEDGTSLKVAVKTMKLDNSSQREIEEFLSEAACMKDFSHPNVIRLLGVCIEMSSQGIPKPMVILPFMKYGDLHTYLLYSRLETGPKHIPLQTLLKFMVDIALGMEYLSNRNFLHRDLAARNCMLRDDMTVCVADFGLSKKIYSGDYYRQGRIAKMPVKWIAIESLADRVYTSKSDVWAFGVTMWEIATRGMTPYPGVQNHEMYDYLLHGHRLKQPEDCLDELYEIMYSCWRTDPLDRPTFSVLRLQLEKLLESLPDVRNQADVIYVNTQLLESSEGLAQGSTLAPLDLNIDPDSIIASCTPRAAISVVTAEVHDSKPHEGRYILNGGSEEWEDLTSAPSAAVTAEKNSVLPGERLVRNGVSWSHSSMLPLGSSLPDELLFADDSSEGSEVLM
Briefly: DSF thermal shift assay. Format: binding. As to conditions: read-out: ΔTm. As for the experimental part:
as §1

Data set [19] deals with T16, EPHB3 (Homo sapiens, UniProt P54753).
T16 construct: purchased in-house DSF (thermal shift) panel per Fedorov et al
Briefly: DSF thermal shift assay. As to conditions: read-out: ΔTm. The data set is classed as binding. As for the experimental part:
as §1

The target of data set [20] is T17, DAPK1 (Homo sapiens, UniProt P53355).
T17 construct: purchased in-house DSF (thermal shift) panel per Fedorov et al
Briefly: DSF thermal shift assay. The data set is classed as binding. As to conditions: read-out: ΔTm. As for the experimental part:
as §1

Data set [21] deals with T18, STK10 (Homo sapiens, UniProt O94804).
T18 construct: purchased in-house DSF (thermal shift) panel per Fedorov et al
Briefly: DSF thermal shift assay. The note with it: read-out: ΔTm. The data set is classed as binding. Here is the method:
as §1

Data set [22] concerns the target T19, MAPK6 (Homo sapiens, UniProt Q16659).
T19 construct: purchased in-house DSF (thermal shift) panel per Fedorov et al
In words: DSF thermal shift assay. As to conditions: read-out: ΔTm. Format: binding. As for the experimental part: as §1

Data set [23] deals with T20, DCAMKL1 (Homo sapiens, UniProt O15075).
T20 construct: purchased in-house DSF (thermal shift) panel per Fedorov et al
In words: DSF thermal shift assay. Format: binding. As to conditions: read-out: ΔTm. Here is the method: as §1

Data set [24] has as its target T21, CAMKK2 (Homo sapiens, UniProt Q96RR4).
T21 construct: purchased in-house DSF (thermal shift) panel per Fedorov et al
In words: DSF thermal shift assay. Format: binding. The note with it: read-out: ΔTm. As for the experimental part: as §1

SMILES strings stand for the structures. pIC50, pKi: −log10 of the molar value. A value given as a limit tells only on which side of the number the result lay.

T7 sequence (Q5VT25 whole entry): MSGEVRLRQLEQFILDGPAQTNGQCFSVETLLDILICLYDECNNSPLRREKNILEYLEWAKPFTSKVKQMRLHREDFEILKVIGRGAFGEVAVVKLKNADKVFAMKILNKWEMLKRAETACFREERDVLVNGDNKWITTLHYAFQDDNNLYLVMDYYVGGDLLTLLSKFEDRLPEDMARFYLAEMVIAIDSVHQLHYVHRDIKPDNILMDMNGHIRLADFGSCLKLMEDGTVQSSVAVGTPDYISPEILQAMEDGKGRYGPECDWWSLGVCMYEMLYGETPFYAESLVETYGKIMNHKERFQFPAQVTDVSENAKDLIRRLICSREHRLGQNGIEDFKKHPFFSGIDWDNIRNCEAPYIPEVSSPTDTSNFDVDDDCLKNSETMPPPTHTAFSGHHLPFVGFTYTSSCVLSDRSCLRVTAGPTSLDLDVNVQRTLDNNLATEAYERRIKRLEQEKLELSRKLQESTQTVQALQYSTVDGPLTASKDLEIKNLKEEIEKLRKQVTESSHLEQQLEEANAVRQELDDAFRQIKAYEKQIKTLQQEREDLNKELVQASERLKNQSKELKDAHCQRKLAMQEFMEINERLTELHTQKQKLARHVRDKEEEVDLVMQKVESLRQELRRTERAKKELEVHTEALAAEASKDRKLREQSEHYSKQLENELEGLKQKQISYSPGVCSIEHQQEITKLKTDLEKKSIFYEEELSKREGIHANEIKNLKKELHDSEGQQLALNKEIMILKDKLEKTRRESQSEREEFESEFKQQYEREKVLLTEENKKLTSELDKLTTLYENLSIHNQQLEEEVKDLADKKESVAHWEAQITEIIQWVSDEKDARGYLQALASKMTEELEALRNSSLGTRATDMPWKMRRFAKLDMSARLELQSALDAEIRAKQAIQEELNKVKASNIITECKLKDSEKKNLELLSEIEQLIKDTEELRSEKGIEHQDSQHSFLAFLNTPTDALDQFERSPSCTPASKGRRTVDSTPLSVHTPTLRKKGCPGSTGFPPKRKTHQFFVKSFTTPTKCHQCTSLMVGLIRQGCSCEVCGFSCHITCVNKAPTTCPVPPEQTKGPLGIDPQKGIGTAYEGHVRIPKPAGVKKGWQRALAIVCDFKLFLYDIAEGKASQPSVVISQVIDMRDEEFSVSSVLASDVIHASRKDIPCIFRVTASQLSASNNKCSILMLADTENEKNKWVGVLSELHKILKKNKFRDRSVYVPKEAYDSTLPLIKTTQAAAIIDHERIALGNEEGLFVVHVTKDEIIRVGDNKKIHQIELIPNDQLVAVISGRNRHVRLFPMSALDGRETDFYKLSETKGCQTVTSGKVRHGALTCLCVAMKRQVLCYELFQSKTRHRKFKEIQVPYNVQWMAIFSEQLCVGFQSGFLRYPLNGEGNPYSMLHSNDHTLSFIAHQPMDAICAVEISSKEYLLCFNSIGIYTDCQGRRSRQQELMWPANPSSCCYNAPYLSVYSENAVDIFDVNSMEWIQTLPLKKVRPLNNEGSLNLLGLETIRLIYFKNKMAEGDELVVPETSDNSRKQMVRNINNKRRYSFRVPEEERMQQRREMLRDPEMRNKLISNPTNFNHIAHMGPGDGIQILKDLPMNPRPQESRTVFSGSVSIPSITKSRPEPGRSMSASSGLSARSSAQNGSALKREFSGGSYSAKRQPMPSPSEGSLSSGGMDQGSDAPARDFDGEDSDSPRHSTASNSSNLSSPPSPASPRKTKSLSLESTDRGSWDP
T3 sequence (Q16566 whole entry): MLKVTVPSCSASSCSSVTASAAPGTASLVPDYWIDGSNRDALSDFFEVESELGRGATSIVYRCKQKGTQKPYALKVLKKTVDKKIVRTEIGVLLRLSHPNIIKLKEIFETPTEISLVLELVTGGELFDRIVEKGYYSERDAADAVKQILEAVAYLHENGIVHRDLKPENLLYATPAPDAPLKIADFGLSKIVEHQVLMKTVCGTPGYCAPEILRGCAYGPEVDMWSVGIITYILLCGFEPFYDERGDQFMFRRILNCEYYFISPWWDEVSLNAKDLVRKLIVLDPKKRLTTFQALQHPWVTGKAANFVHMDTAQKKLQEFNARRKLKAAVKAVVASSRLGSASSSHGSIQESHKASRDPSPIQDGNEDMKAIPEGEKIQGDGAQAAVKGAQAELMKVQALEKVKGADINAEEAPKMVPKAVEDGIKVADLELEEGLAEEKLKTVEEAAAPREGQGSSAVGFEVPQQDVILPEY

Compound `CN(C)C/C=C/C(=O)Nc1cc2c(Nc3ccc(F)c(Cl)c3)ncnc2cc1O[C@H]1CCOC1` [Afatinib] gave a half-life at […] in [1] of 5 h.
As for `CCc1cnc(Nc2ncccc2[N+](=O)[O-])nc1N1CCN(Cc2nc3cc(C(F)(F)F)ccc3[nH]2)CC1` [Compound 21], the pIC50 in [2] was less than 5.30.
For the compound `CCc1cncnc1N1CCN(Cc2nc3ccc(C(F)(F)F)cc3[nH]2)CC1` [PF-4708671], the pIC50 was 4.19 in [3] and 6.80 in [4]. Further, in data set [4], the pKi was 7.70.
As to `CN[C@@H]1C[C@H]2O[C@@](C)([C@@H]1OC)n1c3ccccc3c3c4c(c5c6ccccc6n2c5c31)C(=O)NC4` [Staurosporine, reference compound], the ΔTm at 10 µM in data set [5] was 15 °C; in [6], 8.9 °C; in [7], 1.4 °C; in [8], 6.2 °C; in data set [9], 7.4 °C; in data set [10], 2.2 °C. In addition, the ΔTm at 10 µM turned out to be 20.8 °C in [11]; 14.8 °C in data set [12]; 19 °C in [13]; 7.6 °C in data set [14]; 9.3 °C in data set [15]; 2.2 °C in data set [16]. Further, the thermal shift (ΔTm) at 10 µM in data set [17] was 12.7 °C; in data set [18], 5.9 °C; in data set [19] it was 6.7 °C; in data set [20], 9.6 °C; in [21] it was 24.4 °C; in [22], 1 °C. The ΔTm at 10 µM in data set [23] was found to be 6.3 °C; in data set [24] it was 25.1 °C.
